Assay results reported in paper PMC6274419, “Synthesis and Anticancer Activities of Glycyrrhetinic Acid Derivatives” (Molecules, 2016).
Counter-ions that a name gives are not always drawn. Like-named read-outs stand apart in the source and are kept apart here.

How the values were obtained:
Assay type in all cases: cell-based, human
[1] = tested on: MCF-7 cells; test: MTT cytotoxicity assay, MCF-7; conditions: read-out: IC50 MCF-7
Description: (§1) The anticancer activities of compounds 17–24, 41–56 against MCF-7, MDA-MB-231 and hTERT-RPE1 cells were determined in vitro by an MTT assay. […] The data was calculated and presented as IC50 values in Table 1.
(§2) The cytotoxicities of the compounds were evaluated by the MTT assay, which is based on the conversion of MTT to formazan crystals by mitochondrial dehydrogenases. […] The medium was incubated with 20 μL of 5 mg/mL MTT solution for 3 h in a humidified incubator containing 5% CO2. The purple coloured formazan crystals formed in the wells were dissolved in DMSO and their absorbances were measured at 570 nm with a microplate reader. Cell viability was expressed as a percentage of the value in control cultures.

[2] = tested on: MDA-MB-231 cells; test: MTT cytotoxicity assay, MDA-MB-231; conditions: read-out: IC50 MDA-MB-231
Description: The data was calculated and presented as IC50 values in Table 1.
as §2

[3] = tested on: hTERT-RPE1 cells; test: MTT cytotoxicity assay, hTERT-RPE1 normal cells; conditions: read-out: IC50 hTERT-RPE1
Description: as §1, §2

[4] = MCF7, human breast cancer cell line MCF-7, MTT method, 24 h treatment, mean ± SD
[5] = human breast cancer cell line MDA-MB-231, MTT method, 24 h treatment, mean ± SD
[6] = normal human retinal pigment epithelial cell line hTERT-RPE1, MTT method, 24 h treatment, mean ± SD

## CCOC(=O)/C=C/c1ccc(OC(=O)[C@@]2(C)CC[C@]3(C)CC[C@]4(C)C(=CC(=O)[C@@H]5[C@@]6(C)CC[C@H](OC(=O)[C@@H](N)CCSC)C(C)(C)[C@@H]6CC[C@]54C)[C@@H]3C2)c(OC)c1 [Compound 43, Ferulic acid ethyl ester 3β-(l-methionine)-11-oxo-olean-12-en-30-oate hydrochloride]
[1]; [4]
  IC50: 8.62 ± 0.23 µM
[2]; [5]
  IC50: 5.36 ± 0.44 µM
[3]; [6]
  IC50: 16.3 ± 0.51 µM

## CCOC(=O)/C=C/c1ccc(OC)c(OC(=O)[C@@]2(C)CC[C@]3(C)CC[C@]4(C)C(=CC(=O)[C@@H]5[C@@]6(C)CC[C@H](OC(=O)[C@@H](N)CCSC)C(C)(C)[C@@H]6CC[C@]54C)[C@@H]3C2)c1 [Compound 51, Isoferulic acid ethyl ester 3β-(l-methionine)-11-oxo-olean-12-en-30-oate hydrochloride]
[1]; [4]
  IC50: 8.81 ± 0.2 µM
[2]; [5]
  IC50: 4.67 ± 0.74 µM
[3]; [6]
  IC50: 12.5 ± 0.4 µM

## COC(=O)/C=C/c1ccc(OC)c(OC(=O)[C@@]2(C)CC[C@]3(C)CC[C@]4(C)C(=CC(=O)[C@@H]5[C@@]6(C)CC[C@H](OC(=O)[C@@H](N)CC[Se]C)C(C)(C)[C@@H]6CC[C@]54C)[C@@H]3C2)c1 [Compound 50, Isoferulic acid methyl ester 3β-(l-selenomethionine)-11-oxo-olean-12-en-30-oate hydrochloride]
[1]; Homo sapiens, MCF7, 24 h
  IC50: 5.12 ± 0.58 µM
[2]; Homo sapiens, MDA-MB-231, 24 h
  IC50: 3.13 ± 0.45 µM
[3]; Homo sapiens, hTERT-RPE1, 24 h
  IC50: 9.79 ± 0.37 µM

## COC(=O)/C=C/c1cccc(OC(=O)[C@@]2(C)CC[C@]3(C)CC[C@]4(C)C(=CC(=O)[C@@H]5[C@@]6(C)CC[C@H](OC(=O)[C@@H](N)CCSC)C(C)(C)[C@@H]6CC[C@]54C)[C@@H]3C2)c1 [Compound 53, trans-3-Hydroxycinnamic acid methyl ester 3β-(l-methionine)-11-oxo-olean-12-en-30-oate hydrochloride]
[1]; [4]
  IC50: 7.2 ± 0.55 µM
[2]; [5]
  IC50: 3.54 ± 0.46 µM
[3]; [6]
  IC50: 8.49 ± 0.51 µM

## CCOC(=O)/C=C/c1cccc(OC(=O)[C@@]2(C)CC[C@]3(C)CC[C@]4(C)C(=CC(=O)[C@@H]5[C@@]6(C)CC[C@H](OC(=O)[C@@H](N)CCSC)C(C)(C)[C@@H]6CC[C@]54C)[C@@H]3C2)c1 [Compound 55, trans-3-Hydroxycinnamic acid ethyl ester 3β-(l-methionine)-11-oxo-olean-12-en-30-oate hydrochloride]
[1]; [4]
  IC50: 5.79 ± 0.85 µM
[2]; [5]
  IC50: 1.92 ± 0.91 µM
[3]; [6]
  IC50: 6.63 ± 0.22 µM

## CCOC(=O)/C=C/c1ccc(OC(=O)[C@@]2(C)CC[C@]3(C)CC[C@]4(C)C(=CC(=O)[C@@H]5[C@@]6(C)CC[C@H](OC(=O)[C@@H](N)CCSC)C(C)(C)[C@@H]6CC[C@]54C)[C@@H]3C2)cc1 [Compound 47, trans-4-Hydroxycinnamic acid ethyl ester 3β-(l-methionine)-11-oxo-olean-12-en-30-oatehydrochloride]
[1]; [4]
  IC50: 2.65 ± 0.12 µM
[2]; [5]
  IC50: 2.31 ± 0.65 µM
[3]; [6]
  IC50: 5.65 ± 1.02 µM

## COC(=O)/C=C/c1ccc(OC)c(OC(=O)[C@@]2(C)CC[C@]3(C)CC[C@]4(C)C(=CC(=O)[C@@H]5[C@@]6(C)CC[C@H](OC(=O)[C@@H](N)CCSC)C(C)(C)[C@@H]6CC[C@]54C)[C@@H]3C2)c1 [Compound 49, Isoferulic acid methyl ester 3β-(l-methionine)-11-oxo-olean-12-en-30-oate hydrochloride]
[1]; [4]
  IC50: 8.7 ± 0.14 µM
[2]; [5]
  IC50: 4.56 ± 0.36 µM
[3]; [6]
  IC50: 8.92 ± 0.55 µM

## CCOC(=O)/C=C/c1ccc(OC(=O)[C@@]2(C)CC[C@]3(C)CC[C@]4(C)C(=CC(=O)[C@@H]5[C@@]6(C)CC[C@H](OC(=O)[C@@H](N)CC[Se]C)C(C)(C)[C@@H]6CC[C@]54C)[C@@H]3C2)cc1 [Compound 48, trans-4-Hydroxycinnamic acid ethyl ester 3β-(l-selenomethionine)-11-oxo-olean-12-en-30-oate hydrochloride]
[1]; Homo sapiens, MCF7, 24 h
  IC50: 2.42 ± 0.23 µM
[2]; Homo sapiens, MDA-MB-231, 24 h
  IC50: 1.86 ± 0.29 µM
[3]; Homo sapiens, hTERT-RPE1, 24 h
  IC50: 7.08 ± 0.73 µM

## COc1cccc2c1C(=O)c1c(O)c3c(c(O)c1C2=O)C[C@@](O)(C(=O)CO)C[C@@H]3O[C@H]1C[C@H](N)[C@H](O)[C@H](C)O1 [ADR, doxorubicin, reference compound]
[1]; [4]
  IC50: 0.49 ± 0.09 µM
[3]; [6]
  IC50: 2.76 ± 0.11 µM
